{
  "source": "BindingDB's records for doi:10.1111/cbdd.12330",
  "about": "(Institute of Experimental Botany Ascr and Palacky University, 2014)",
  "test_in_all_cases": "Kinase Selectivity",
  "key": {"[1]": {"target": "Cyclin-dependent kinase 1 (Homo sapiens, UniProt P06493)", "sequence (P06493 whole entry)": "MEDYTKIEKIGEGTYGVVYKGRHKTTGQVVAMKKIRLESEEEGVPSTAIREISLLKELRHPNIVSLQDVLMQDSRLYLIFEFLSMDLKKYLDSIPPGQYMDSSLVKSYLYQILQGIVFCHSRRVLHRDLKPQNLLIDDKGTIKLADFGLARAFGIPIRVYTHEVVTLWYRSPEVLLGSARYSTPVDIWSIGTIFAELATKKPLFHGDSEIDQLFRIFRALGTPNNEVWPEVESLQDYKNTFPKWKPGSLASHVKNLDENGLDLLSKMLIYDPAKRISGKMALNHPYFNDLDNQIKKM", "method": "(§1) Cyclin-dependent kinase selectivity was evaluated using CDK1-cyclin B, CDK2-cyclin E, CDK4-cyclin D1, CDK7-cyclin H, and CDK9-cyclin T1."}, "[2]": {"target": "Cyclin-dependent kinase 2 (Homo sapiens, UniProt P24941)", "method": "as §1"}, "[3]": {"target": "Cyclin-dependent kinase 4 (Homo sapiens, UniProt P11802)", "sequence (P11802 whole entry)": "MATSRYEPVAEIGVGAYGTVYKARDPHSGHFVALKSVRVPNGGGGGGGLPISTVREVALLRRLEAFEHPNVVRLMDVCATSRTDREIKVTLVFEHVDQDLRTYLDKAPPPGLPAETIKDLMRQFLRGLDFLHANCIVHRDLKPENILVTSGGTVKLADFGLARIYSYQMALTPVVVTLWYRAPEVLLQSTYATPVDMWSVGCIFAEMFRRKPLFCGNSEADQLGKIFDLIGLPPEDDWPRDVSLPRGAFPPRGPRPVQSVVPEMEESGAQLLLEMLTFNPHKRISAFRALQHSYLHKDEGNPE", "method": "as §1"}, "[4]": {"target": "Cyclin-dependent kinase 7 (Homo sapiens, UniProt P50613)", "sequence (P50613 whole entry)": "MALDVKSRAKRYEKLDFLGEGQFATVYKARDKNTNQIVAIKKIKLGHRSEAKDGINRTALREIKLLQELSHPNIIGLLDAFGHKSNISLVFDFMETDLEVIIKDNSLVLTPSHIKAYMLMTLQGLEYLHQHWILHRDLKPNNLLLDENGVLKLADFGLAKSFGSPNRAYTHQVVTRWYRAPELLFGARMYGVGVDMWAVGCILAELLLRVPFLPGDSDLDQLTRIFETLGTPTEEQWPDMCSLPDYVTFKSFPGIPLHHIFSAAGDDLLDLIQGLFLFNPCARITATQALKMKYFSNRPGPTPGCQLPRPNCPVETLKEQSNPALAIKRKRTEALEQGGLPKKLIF", "method": "as §1"}, "[5]": {"target": "Cyclin-dependent kinase 9 (Homo sapiens, UniProt P50750)", "sequence (P50750 whole entry)": "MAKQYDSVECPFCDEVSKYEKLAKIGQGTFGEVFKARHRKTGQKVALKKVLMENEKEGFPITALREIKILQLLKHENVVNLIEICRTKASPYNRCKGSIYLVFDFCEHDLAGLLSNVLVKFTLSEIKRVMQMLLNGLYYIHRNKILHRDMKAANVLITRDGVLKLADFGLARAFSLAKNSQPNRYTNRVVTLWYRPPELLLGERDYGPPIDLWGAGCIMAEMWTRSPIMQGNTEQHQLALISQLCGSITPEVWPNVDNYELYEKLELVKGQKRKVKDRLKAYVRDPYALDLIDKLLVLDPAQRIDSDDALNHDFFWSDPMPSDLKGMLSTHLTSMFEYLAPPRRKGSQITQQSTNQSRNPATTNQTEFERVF", "method": "as §1"}},
  "note": "pIC50: −log10 of the molar value.",
  "data": [
    {"smiles": "Nc1n[nH]c(N)c1/N=N/c1ccncc1", "note": "[AAP1742]", "values": [
      {"measurement": "pIC50", "setting": "[1]", "result": 5.88},
      {"measurement": "pIC50", "setting": "[2]", "result": 6.26},
      {"measurement": "pIC50", "setting": "[3]", "result": 6.34},
      {"measurement": "pIC50", "setting": "[4]", "result": 4.83},
      {"measurement": "pIC50", "setting": "[5]", "result": 6.55}
    ]}
  ]
}
